Data taken from US20130172324A1, “METHOD FOR TREATING CARDIOVASCULAR DISEASES USING RHO KINASE INHIBITOR COMPOUNDS” (priority 2008, published 2013).
“Also recorded” adds a separate entry of the source.

Experiments:
[1] = test system: ova-sensitized, ova-challenged mice; assay: Prevention of airway hyperreactivity development, anti-inflammatory dosing paradigm (Penh); assay type: in vivo, mouse
LPS-challenged mice = assay: LPS-induced neutrophilia and cytokine production assay; assay type: in vivo, mouse; settings: for IL-1β levels in BALF: intratracheal administration, LPS-challenged mice, FIG. 18
Description: Male BALB/c mice, approximately 19 to 21 grams, were ordered from Charles River Laboratories (Raleigh, N.C.). All animals were challenged with aerosolized LPS (10 μg/ml) for 25 minutes on study day 0. LPS aerosol was generated using an Aerogen Aeroneb nebulizer and controller providing a flow of 400 μl/min and a particle size of 2-4 μm MMAD. Rolipram was administered i.p at 20 mg/kg. […] Four hours following LPS challenge, BALF was collected using a total of 3 ml of 0.9% sodium chloride containing 10% fetal calf serum. Total cell counts were determined using the Coulter Counter. For differential evaluations, BALF was centrifuged and cytospin slides prepared and stained with Hema3 stain. Manual leukocyte counts were then completed on 200 cells. The final concentration of individual leukocyte cell types per ml of BALF was determined by multiplication of the relative percentage of individual leukocytes with the total amount of cells/ml of BALF fluid. The concentration of IL-1β in the BALF samples was determined using commercially available Bio-plex kits (Bio-Rad). The analysis of cytokine levels was measured using the Bio-Plex 200 (Bio-Rad) system according to the manufacturer's instructions.

ERK1 = target: T1, ERK1 (Homo sapiens, UniProt P27361); assay: Kinase panel screen (KinaseProfiler), ERK1; assay type: biochemical; settings: 10 μM ATP
T1 construct: purchased Upstate, Millipore Bioscience Division (KinaseProfiler service)
Description: (§1) Compounds of Formulae I and II were examined for activity against a selected panel of kinases using the KinaseProfiler™ enzyme profiling services (Upstate, Millipore Bioscience Division). Percent kinase activity at 10 μM and 1 μM test compound and 10 μM ATP was determined against 40 wild-type recombinant human kinases according to Upstate's standard protocol: ASK1, BTK, CSK, c-RAF, GCK, GSK3β, IKKα, IKKβ, IRAK1, IRAK4, JNK1α1, JNK2α2, JNK3, ERK1, ERK2, MAPKAP-K2, MAPKAP-K3, MEK1, MKK4, MKK6, MKK7β, Mnk2, MSK1, PAK3, PDK1, PRAK, ROCK1, Rsk2, SAPK2a, SAPK2b, SAPK3, SAPK4, SRPK1, SRPK2, Syk, TAK1, TBK1, PI3-Kβ, PI3-Kγ, PI3-Kδ.

ERK2 = target: T2, ERK2 (Homo sapiens, UniProt P28482); assay: Kinase panel screen (KinaseProfiler), ERK2; assay type: biochemical; settings: 10 μM ATP
T2 construct: purchased Upstate, Millipore Bioscience Division (KinaseProfiler service)
Description: as §1

[2] = test system: ova-sensitized, ova-challenged mice; assay: Bronchodilator assay in ovalbumin-sensitized mice (Penh, methacholine); assay type: in vivo, mouse; settings: for log10AUC (penh): bronchodilator dosing paradigm
Description: Male BALB/c mice were ordered from Charles River Laboratories (Raleigh, N.C.). The animals were approximately 19 to 21 grams at time of receipt. Upon arrival, the animals were randomized into groups of five males per cage and assigned to a dosing group. Animals were quarantined for 7 days under test conditions. They were observed daily for general health status and ability to adapt to the water bottles.
Animals were sensitized on day 0 and 14 of study by an intraperitoneal injection with 20 μg of ovalbumin (ova) and 2.0 mg aluminum hydroxide (alum) which initiates the development of a specific T-helper (Th) cells type 2 resulting in asthmatic animals. One group of animals received an injection of saline to use as non-asthmatic control animals. All animals were challenged with aerosolized 1% ova once daily for 25 minutes on days 28, 29, and 30 (Zosky, et al. Respiratory Research. 2004; 5:15). Aerosol challenge consists of using an Aerogen Aeroneb nebulizer and controller with a particle size of 4-6 μm mass median aerodynamic diameter (MMAD) with a distribution of 400 μl per minute. This aerosol challenge is necessary to target the Th2-driven allergic inflammation in the lower airways.
The test compounds and the control vehicle were administered to animals on the day of airway hyperreactivity evaluation 30 minutes to 1 hour before the evaluation to determine the bronchodilator effects of the compounds according to the bronchodilator dosing paradigm (FIG. 8). Compounds were administered p.o. (orally), i.p. (intraperitoneally) at 15 μMol/kg unless otherwise noted (Table 6). Alternatively, compounds were administered i.t. (intratracheally) at varying doses as shown (FIG. 9). On day 32 of the experiment, airway hyperreactivity was evaluated by placing conscious, unrestrained animals in a whole body plethysmometer (Buxco Wilmington, N.C.) and exposing them to escalating doses of nebulized methacholine, a known bronchial constrictor which acts through the muscarinic receptors of the lungs, (doses: 0.325-50 mg/ml). Exposure to the methacholine doses consisted of a 3 minute period during which a nebulizer was aerosolizing the methacholine and an additional 3 minute period following the cessation of nebulization. Over this 6 minute period, the plethysmometer monitors and generates numerical values for all parameters of the breath pattern. Enhanced pause (Penh), a unitless index of airway hyperreactivity, is derived from the expiratory side of the respiratory waveform measured via the plethysmograph and is used as an indirect measure of airway resistance and hyperreactivity. […] Following the methacholine dose response, all animals were anesthetized, bled and euthanized.
Within each experiment, a mouse was given a single compound and exposed to increasing doses of methacholine [0 (baseline), 0.375, 0.75, 1.5, 3, 6, 12, 25, 50 mg/ml]. The Penh value at each of the dose levels of methacholine represents the 6-minute average response. Change from baseline (CFB) in Penh was calculated at each methacholine dose and the area under the curve (AUC) for these CFB values was calculated using the trapezoidal rule. This same approach was applied for each mouse across multiple experiments.
For statistical analyses, a linear mixed-effects model where the response was the log 10 transformed value of AUC described above was used. Data from equal experimental conditions across experiments performed on different days were pooled for statistical analysis and data reporting. The various compounds were compared adjusting for the log 10-transformed baseline value of Penh and the chamber (1 of 10) of the plethysmometer each mouse was contained in during an experiment. A random intercept for each experiment was assumed to account for possible similarities of the results obtained from a given experiment (i.e., as a “blocking effect”). […] Computations were performed using PROC MIXED (SAS Version 9.1). […]

murine eosinophils = assay: Eotaxin-induced murine eosinophil chemotaxis; assay type: cell-based, mouse; settings: 10 nM eotaxin challenge; FIG. 1
Description: Bronchoalveolar lavage was collected from ovalbumin sensitized and challenged mice in a volume of 2.5 mL lavage buffer. The lavage buffer was 0.9% saline with 10% fetal bovine serum. The pooled lavages were maintained on ice until use. The murine eosinophils were isolated using MACS cell separation (Miltenyi Biotech) by depletion of B cells and T cells by positive selection following incubation with antibody conjugated magnetic beads specific for CD45-R (B220) and CD90 (Thy 1.2), which bind B cells and T cells, respectively.
Eosinophil chemotaxis was assessed using a modified Boyden Chamber (Neuroprobe, 96-well) with a 5 μm pore membrane. The ability of the tested compounds to block chemotaxis induced by a 10 nM eotaxin challenge (mouse) or 1 nM eotaxin challenge (human) during one hour incubation at 37° C. with 5% CO2 was assessed. Chemotaxis was quantified via microscopy by counting the number of migrated cells in at least 3 view fields per treatment.

[3] = test system: ova-sensitized, ova-challenged mice; assay: In vivo anti-inflammatory assay in ovalbumin-sensitized mice (BALF eosinophils and cytokines); parameters: species or system mouse
From the text: A mouse model of asthma via ovalbumin sensitization was created as described in Example 23. The anti-inflammatory dosing paradigm (FIG. 10) was utilized to evaluate the anti-inflammatory effects of experimental compounds. The anti-inflammatory dosing paradigm consists of dosing the animals once a day starting on day 27 and finishing on either day 30 or 31 (1 hr prior to the aerosolized ovalbumin challenges on days 28 to 30) but not on day 32 when hyperreactivity evaluation occurs.
Bronchoalveolar lavage fluid (BALF) was collected by infusing 3.0 ml of saline with 10% fetal calf serum into the lungs via the trachea and then withdrawing the fluid. The total amount of cells/ml of BALF fluid was determined via manual cell count on hemocytometer. The BALF was centrifuged, supernatant removed and analyzed for cytokine concentrations as described below, and cell pellet reconstituted in 500 μL of fluid. Cytospin slides were prepared from the cell pellet using 100 μL of fluid and spinning samples for 5 minutes at 5000 rpms in a cytospin centrifuge. Following Hema3 stain, relative percentages of individual leukocytes were determined on a 200 cell count for each sample. The final concentration of individual leukocyte cell types per ml of BALF was determined by multiplication of the relative percentage of individual leukocytes with the total amount of cells/ml of BALF fluid.
The concentrations of cytokines in the BALF samples were determined using commercially available Bio-plex kits (Bio-Rad) for the detection of mouse IL-5, IL-13, and Eotaxin. The analysis of cytokine levels was measured using the Bio-Plex 200 (Bio-Rad) system according to the manufacturer's instructions.

rat trachea rings = assay: Tracheal relaxation assay (carbachol precontracted rings); settings: for Percentage of carbachol-induced contraction at 1 μM compound, Avg % / Percentage of carbachol-induced contraction at 10 μM compound, Avg %: 1 μM carbachol; for IC50: Rattus norvegicus, read-out: IC50 Avg; for Trachael Ring Contraction, %: average percentage of carbachol-induced rat tracheal ring contraction at 1 μM of test compound;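 on all read-outs here: isometric tension of rat tracheal rings in Krebs buffer with 1 µM indomethacin, compounds added cumulatively at 30 min intervals, basal tension subtracted, fit to Hill equation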
Description: The effects of compounds to induce relaxation of pre-contracted rat trachealis were determined. […] Trachea were excised, cleaned of connective tissue and cut into cylindrical segments of 2-3 mm length. Two stainless steel wires were guided through the lumen of the tracheal ring. One wire was fixed in the tissue bath and the other was connected to a force transducer via surgical silk. […] Indomethacin (1 μM), a cyclooxygenase inhibitor, was added to the Krebs buffer and was present throughout the experiments. Contractile tensions were measured using an isometric force transducer (Grass Instruments) and signals were analyzed using specialized software (Chart v5.5, ADInstruments). The preparations were allowed to equilibrate at a resting tension of 0.3 to 0.5 gm prior to two challenges with 60 mM KCl to assess tissue viability. After washing, tissues were treated with 1 μM carbachol for 10 to 15 minutes to induce a contractile response. Test Compounds were added cumulatively to the bath every 30 minutes and reductions in tension were recorded. Basal tension was subtracted from all values and data were reported as a percentage of the maximal carbachol-induced contraction. Data were fit to the Hill equation using GraphPad Prism v5 software.

human eosinophils = assay: Eotaxin-induced human eosinophil chemotaxis; assay type: cell-based; settings: 1 nM eotaxin challenge; FIG. 2
From the text: Peripheral blood from healthy human volunteers was collected and the PMNs separated via Ficoll-paque density centrifugation followed by hypotonic lysis of the red blood cells. Subsequently, the human eosinophils were isolated from the cell suspension via StemCell Technologies Human Eosinophil Enrichment kit (Cat. No 19256) according to the manufacturer's recommendations. Briefly, unwanted cells were specifically labeled with dextran-coated magnetic nanoparticles using bispecific Tetrameric Antibody Complexes (TAC) directed against cell surface antigens on human blood cells: […] The unwanted cells are then separated from the unlabelled eosinophils using the EasySep® magnetic isolation procedure.

[4] = Rat oral pharmacokinetics (plasma); assay type: in vivo
Description: Plasma (EDTA K2 anticoagulant) was collected from male, cannulated, CD Sprague Dawley rats to determine the pharmacokinetics of formulations containing compound inhibitors of Rho kinase. Each animal was dosed orally with a 4 ml/kg solution or suspension of each test compound in 10 mM acetate buffered saline, pH 4.5 at a final concentration range of 20-30 μmol/kg. Blood was collected at 0.25, 0.5, 1, 2, 4, 6, 8, and 24 hours. Plasma samples were assayed for the concentration of the test compound using an on-line, solid phase extraction LC/MS/MS analysis system.
Samples were analyzed on a QSTAR Elite, hybrid quadrupole time-of-flight mass spectrometer (Applied Biosystems, Framingham, Mass.) coupled with a Symbiosis Pharma integrated, on-line SPE-HPLC system (Spark Holland Inc., Plainsboro, N.J.). Analyst QS 2.0 software was used for instrument control, data acquisition and processing. […] Mobile Phase A consisted of 0.1% ammonium hydroxide in water and Mobile Phase B consisted of 0.1% formic acid in acetonitrile. Pharmacokinetic analyses were performed using WinNonlin software version 5.2 (Pharsight Corporation, Mountain View, Calif.).
As determined from the plasma concentration versus time curves, the time to peak and peak exposure are represented by the values Tmax and Cmax, respectively. The AUC values (nM*hr) shown were calculated as the areas under the plasma concentration versus time curves from time zero through the time of the last observable value and represent the total exposure of the compound over the course of the study. Half-life values or the amount of time required for the plasma levels of the compound to decline to half the initial value are represented as t1/2.

[5] = test system: rat tracheal rings pretreated with vehicle or IL-1β and TNF-α; assay: Effect of inflammatory cytokines on tracheal relaxation; settings: FIG. 7
Description: Male Sprague-Dawley rats weighing 301-325 gm were sacrificed by asphyxiation in a CO2 chamber. Trachea were excised, cleaned of connective tissue and cut into cylindrical segments of 2-3 mm length. Tissues were treated for 18 hours at 37° C. in F12 media with penicillin-streptomycin and 0.1% BSA alone or with 10 ng/ml IL-1β and 100 ng/ml TNF-α. Tissues were then washed free of cytokines with Krebs buffer. Contractile tensions were measured using an isometric force transducer (Grass Instruments) as described for Example 3 and signals were analyzed using specialized software (Chart v5.5, ADInstruments). Tissues were treated with 300 nM carbachol for 10 to 15 minutes to induce a contractile response. Test Compounds were added cumulatively to the bath every 30 minutes and reductions in tension were recorded. Basal tension was subtracted from all values and data were reported as a percentage of the maximal carbachol-induced contraction. Data were fit to the Hill equation using GraphPad Prism v5 software.

[6] = rat, oral, 20-30 μmol/kg, plasma, mean of n = 3

T2 sequence (P28482 whole entry): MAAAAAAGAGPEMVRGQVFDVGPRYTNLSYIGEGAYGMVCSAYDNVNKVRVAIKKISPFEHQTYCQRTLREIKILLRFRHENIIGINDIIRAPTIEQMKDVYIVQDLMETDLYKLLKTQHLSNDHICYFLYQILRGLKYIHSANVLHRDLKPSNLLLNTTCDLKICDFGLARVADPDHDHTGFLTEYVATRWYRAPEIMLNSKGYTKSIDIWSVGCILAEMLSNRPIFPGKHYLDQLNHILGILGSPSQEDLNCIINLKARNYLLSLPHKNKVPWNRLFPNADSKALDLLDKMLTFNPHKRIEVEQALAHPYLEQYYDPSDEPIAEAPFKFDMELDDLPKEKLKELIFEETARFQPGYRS
T1 sequence (P27361 whole entry): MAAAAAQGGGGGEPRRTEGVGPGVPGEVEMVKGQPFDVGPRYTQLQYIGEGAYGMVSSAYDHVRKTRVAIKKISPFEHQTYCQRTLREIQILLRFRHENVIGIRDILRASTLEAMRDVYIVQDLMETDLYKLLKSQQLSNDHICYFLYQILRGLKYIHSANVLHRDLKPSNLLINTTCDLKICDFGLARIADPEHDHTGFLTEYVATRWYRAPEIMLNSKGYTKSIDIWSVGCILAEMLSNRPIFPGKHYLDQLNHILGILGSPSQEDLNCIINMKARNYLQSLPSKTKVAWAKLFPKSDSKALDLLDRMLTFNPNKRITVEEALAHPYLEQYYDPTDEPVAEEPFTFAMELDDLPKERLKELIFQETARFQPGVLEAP

Structure (SMILES): NC(=O)Cn1ccc2cc(CN3CC[C@@H](Nc4cccc5cnccc45)C3)ccc21 [Compound 2.059, (R)-2-(5-((3-(isoquinolin-5-ylamino)pyrrolidin-1-yl)methyl)-1H-indol-1-yl)acetamide]
- airway hyperreactivity ([1]; intratracheal once a day, days 27 to 30 (1.091) or 27 to 31): prevention of airway hyperreactivity
- IL-1β levels in BALF (LPS-challenged mice): reduction
- Percent inhibition, ERK1 (ERK1; 1 μM test compound): 37%
- Percent inhibition, ERK1 (ERK1; 10 μM test compound): 4%
- Percent inhibition, ERK2 (ERK2; 1 μM test compound): 56%
- Percent inhibition, ERK2 (ERK2; 10 μM test compound): 12%

Structure (SMILES): CS(=O)(=O)Nc1cccc(CN2CC[C@@H](Nc3cccc4cnccc34)C2)c1 [Compound 2.038, (R)-N-(3-((3-(isoquinolin-5-ylamino)pyrrolidin-1-yl)methyl)phenyl)methanesulfonamide]
- log10AUC (penh) ([2]; 15 μmol/kg oral): 2.0813
- reduction in airway hyperresponsiveness ([2]; oral doses): statistically significant reduction
- chemotactic response of murine eosinophils (murine eosinophils): inhibited
- airway hyperreactivity to methacholine ([1]; oral 15 μMol/kg once a day during days 27 to 31, methacholine on Day 32): prevention of airway hyperreactivity
- concentration of IL-5 in BALF ([3]; 15 μmol/kg/oral on days 27 to 31, FIG. 13): reduced levels
- concentration of Eotaxin in BALF ([3]; 15 μmol/kg/oral on days 27 to 31, FIG. 14): reduced levels
- concentration of IL-13 in BALF ([3]; 15 μmol/kg/oral on days 27 to 31, FIG. 15): reduced levels
- eosinophils per ml of BALF (airway eosinophil infiltration) ([3]; dosed orally to day 31, anti-inflammatory dosing paradigm, FIG. 11): reduced
- Percentage of carbachol-induced contraction at 1 μM compound, Avg % (rat trachea rings): 57.2%
- Percentage of carbachol-induced contraction at 10 μM compound, Avg % (rat trachea rings): 10.2%
- IC50 (rat trachea rings): 272 nM
- Trachael Ring Contraction, % (rat trachea rings): 57%
- chemotactic response of human eosinophils (human eosinophils): inhibited
- plasma and lung tissue concentrations after oral dosing ([4]; oral dosing, refers to Table 13 and Table 15): high plasma and lung tissue concentrations

Structure (SMILES): CS(=O)(=O)Nc1cccc(CN2CCC[C@H](Nc3ccc4[nH]ncc4c3)C2)c1 [Compound 1.091, (S)-N-(3-((3-(1H-indazol-5-ylamino)piperidin-1-yl)methyl)phenyl)methanesulfonamide]
- log10AUC (penh) ([2]; 5 μmol/kg intratracheal): 1.8127
- log10AUC (penh) ([2]; 15 μmol/kg intraperitoneal): 2.0096
- log10AUC (penh) ([2]; 15 μmol/kg oral): 2.2309
- reduction in airway hyperresponsiveness ([2]; i.p. route, compared to oral dosing): enhanced reduction
- bronchodilatory response ([2]; intratracheal administration): robust bronchodilatory response
- reduction in airway hyperresponsiveness ([2]; oral doses): did not yield a significant reduction
- eosinophils in BALF ([3]; dosed i.t. to day 30, anti-inflammatory dosing paradigm, FIG. 12): reduction of eosinophils
- IL-1β levels in BALF (LPS-challenged mice): reduction
- LPS-induced pulmonary neutrophilia influx (LPS-challenged mice; intratracheal dosing one hour prior to LPS challenge, FIG. 17): significant reduction; also recorded: dose-dependent inhibition
- relaxation of tracheal rings, cytokine-pretreated tissues ([5]; 10 ng/ml IL-1β and 100 ng/ml TNF-α for 18 hours, 300 nM carbachol): fully efficacious
- relaxation of tracheal rings, vehicle-pretreated tissues ([5]; 300 nM carbachol): fully efficacious
- potency in cytokine-pretreated versus vehicle-pretreated tissues [5]: slightly more potent in cytokine-pretreated tissues
- Percentage of carbachol-induced contraction at 1 μM compound, Avg % (rat trachea rings): 35.4%
- Percentage of carbachol-induced contraction at 10 μM compound, Avg % (rat trachea rings): 14.3%
- IC50 (rat trachea rings): 103 nM
- Trachael Ring Contraction, % (rat trachea rings): 35%
- oral bioavailability ([4]; oral dosing): poor oral bioavailability
- AUC (0-last) [4, 6]: BLQ
- Cmax [4, 6]: BLQ
- Tmax [4, 6]: BLQ
- Vz_F [4, 6]: BLQ
- t½ [4, 6]: BLQ
